Data published in patent publication US10273235B2, “Compositions and methods for inhibiting β-lactamase” (LegoChem Biosciences, Inc., priority 2015, dated 2019).
Counter-ions that a name gives are not always drawn.

Key:
K. pneumoniae 4248 = assay: BLI potentiation MIC, K. pneumoniae 4248 (SHV-11, CTX-M-15, TEM-1, OXA-1); type: cell-based; settings: BLI fixed 4 ug/ml; incubation 19 h
Method: (§1) MIC90 (μg/mL) is the lowest concentration of an antibiotic that will inhibit the visible growth of 90% of microorganisms after incubation as compared with a control group to which the antibiotic is not treated.
(§2) MIC values were measured by the broth microdilution method developed by the Clinical and Laboratory Standards Institute (CLSI) (see CLSI M07-A9, Methods for Dilution Antimicrobial Susceptibility Test for Bacteria that Grow Aerobically; Approved Standard-Ninth Edition (2012): CLSI, Villanova, Pa.). The in vitro antibacterial activity was measured with respect to the following 9 clinical isolates: P. aeruginosa (3 strains); K. pneumoniae (6 strains). The in vitro antibacterial activity of selected compounds was measured with respect to the following 15 clinical isolates: K. pneumoniae (15 strains).

P. aeruginosa ARC3506 = assay: BLI potentiation MIC, P. aeruginosa ARC3506 (VEB-1, OXA-10, OprD−, AmpC); type: cell-based; settings: BLI fixed 4 ug/ml; incubation 19 h
Method: as §1, §2

P. aeruginosa ARC3514 = assay: BLI potentiation MIC, P. aeruginosa ARC3514 (KPC-2, OprD−, AmpC); type: cell-based; settings: BLI fixed 4 ug/ml; incubation 19 h
Method: as §1, §2

K. pneumoniae 3784 = assay: BLI potentiation MIC, K. pneumoniae 3784 (SHV-11, SHV-12, DHA-1); type: cell-based; settings: incubation 19 h; for MIC of Meropenem with BLI: BLI fixed 4 ug/ml
Method: as §1, §2

K. pneumoniae NDM-506 = assay: BLI potentiation MIC, K. pneumoniae NDM-506; type: cell-based; settings: BLI fixed 4 ug/ml; incubation 19 h
Method: as §1, §2

P. aeruginosa ATCC27853 = assay: BLI potentiation MIC (broth microdilution), P. aeruginosa ATCC27853 (PoxB, AmpC); type: cell-based; settings: incubation 19 h; for MIC of Meropenem with BLI: BLI fixed 4 ug/ml
Method: as §1, §2

E. aerogenes K9911729 = assay: MIC of strain used for extraction of enzymes, E. aerogenes K9911729 (CMY-10, TEM-1, SHV-12, AmpC (DQ478697)); type: cell-based; settings: BLI: 4 ug/mL
K. pneumoniae CL5761 = assay: MIC of strain used for extraction of enzymes, K. pneumoniae CL5761 (KPC-3, TEM-216, SHV-5); type: cell-based; settings: BLI: 4 ug/mL
Method: as §1, §2

E. coli ECO200 = assay: MIC of strain used for extraction of enzymes, E. coli ECO200 (NDM-1, TEM-1, CTX-M-15, EC (AmpC), OXA-2 type); type: cell-based
E. coli TOPDXA048 = assay: MIC of strain used for extraction of enzymes, E. coli TOPDXA048 (OXA-48, TEM-116, AmpC (NC_000913)); type: cell-based
E. coli K0519020 = assay: MIC of strain used for extraction of enzymes, E. coli K0519020 (CTX-M-15, TEM-1, OXA-1, AmpC (NC_000913)); type: cell-based; settings: BLI: 4 ug/mL
[1] = biological target: T1, CMY-10 β-lactamase (class C) (Klebsiella aerogenes, UniProt Q99QC1); assay: Inhibitory activity against β-lactamases (nitrocefin), CMY-10; type: biochemical
T1 construct: MICs of bacterial strains used for extraction of enzymes; endogenous in cells
T1 sequence (Q99QC1 24-382): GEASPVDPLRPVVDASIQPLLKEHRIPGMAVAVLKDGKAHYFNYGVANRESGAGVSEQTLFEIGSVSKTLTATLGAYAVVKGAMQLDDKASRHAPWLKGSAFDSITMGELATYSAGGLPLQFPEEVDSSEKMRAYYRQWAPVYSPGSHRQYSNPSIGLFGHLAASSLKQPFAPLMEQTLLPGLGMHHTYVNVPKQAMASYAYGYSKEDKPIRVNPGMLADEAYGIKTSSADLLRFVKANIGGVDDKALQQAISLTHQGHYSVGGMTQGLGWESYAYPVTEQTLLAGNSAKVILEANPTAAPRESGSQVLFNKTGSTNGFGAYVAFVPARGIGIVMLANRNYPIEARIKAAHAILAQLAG
Method: More diluted stocks were prepared as necessary. Enzyme activity was determined by monitoring the change of absorbance at 492 nm using the characteristic molecular extinction coefficient (Δε492=17,400 M^−1 cm^−1) of nitrocefin by a Shimazu UV-1650PC spectrophotometer. The nitrocefin was purchased from OXOID. Kinetic measurements were run at 30° C. in 10 mM MES[2-(N-morpholino)ethanesulfonic acid]buffer (pH 6.8) or 10 mM MES[2-(N-morpholino)ethanesulfonic acid] buffer (pH 6.8), […] BSA and 50 mM sodium bicarbonate. Reactions were performed in 2.5 mL cuvettes with 100 μM nitrocefin and initiated by adding 1.5 nM to 2.5 nM enzyme. The first 180 s of each reaction was used to measure initial rates. Data were evaluated using Microsoft Excel. Concentration dependent inhibition of enzyme was measured using different concentrations of inhibitors resulting from two-fold dilution series. Reaction progress at every concentration of inhibitor was measured in triplicates. IC50 values were calculated using 4-parameter log fits using XL Fit curve fitting software (www.idbs.com) for Excel using the following equation:
[formula] where y is the remaining enzyme activity (in %) and x is the corresponding concentration. he fitted IC50 parameter is the relative IC50, and is defined as the concentration giving a response half way between the fitted top (B) and bottom (A) of the curve.

Mouse pharmacokinetics = type: in vivo, ICR mouse; settings: IV, 50 mg/kg, plasma; for AUC(0-inf) / Cmax / Tmax / clearance / half-life / Vd: ICR; for Vd: read-out: Vss
Method: The pharmacokinetics values were evaluated in a mouse model. The test compound (50 mg/kg) was injected into the tail vein of 8 week old ICR mouse, weighing approximately 26-30 g. […] Lab conditions were temperature of 22±3° C. and humidity of 50±20%.

K. pneumoniae 4006 = assay: BLI potentiation MIC, K. pneumoniae 4006 (SHV-12, CTX-M-15, TEM-1, OXA-9); type: cell-based; settings: Klebsiella pneumoniae, 4006, 19 h, read-out: MIC of Ceftazidime alone, no BLI; incubation 19 h
Method: as §1, §2

K. pneumoniae 5576 = assay: BLI potentiation MIC, K. pneumoniae 5576 (SHV-11, CMY-2, DHA-1, TEM-1); type: cell-based; settings: Klebsiella pneumoniae, 5576, 19 h, read-out: MIC of Ceftazidime alone, no BLI; incubation 19 h
Method: as §1, §2

K. pneumoniae ATCC700603 = assay: BLI potentiation MIC, K. pneumoniae ATCC700603 (SHV-3); type: cell-based; settings: Klebsiella pneumoniae, ATCC700603, 19 h, read-out: MIC of Ceftazidime alone, no BLI; incubation 19 h
Method: as §1, §2

## NC(=O)CN1CCC2(CC([C@@H]3CC[C@@H]4CN3C(=O)N4OS(=O)(=O)O)=NO2)C1 (stereo partly drawn) [Example 12, [(2S,5R)-2-[7-(2-amino-2-oxo-ethyl)-1-oxa-2,7-diazaspiro[4.4]non-2-en-3-yl]-7-oxo-1,6-diazabicyclo[3.2.1]octan-6-yl] hydrogen sulfate]
K. pneumoniae 4248
  MIC of Meropenem with BLI: 0.125 µg/mL
P. aeruginosa ARC3506
  MIC of Meropenem with BLI: 64 µg/mL
P. aeruginosa ARC3514
  MIC of Meropenem with BLI: >64 µg/mL
K. pneumoniae 3784
  MIC of Meropenem with BLI: 1 µg/mL
K. pneumoniae NDM-506
  MIC of Meropenem with BLI: >64 µg/mL
P. aeruginosa ATCC27853
  MIC of Meropenem with BLI: 2 µg/mL

## NC(=O)[C@@H]1CC[C@@H]2CN1C(=O)N2OS(=O)(=O)O [Avibactam]
E. aerogenes K9911729
  MIC of Meropenem with BLI: 0.5 µg/mL
E. aerogenes K9911729; Klebsiella aerogenes, K9911729, read-out: MIC of LCB10-0200 with BLI
  MIC: 2 µg/mL
K. pneumoniae CL5761
  MIC of Meropenem with BLI: 1 µg/mL
K. pneumoniae CL5761; Klebsiella pneumoniae, CL5761, read-out: MIC of LCB10-0200 with BLI
  MIC: 16 µg/mL
E. coli ECO200; BLI: 4 ug/mL
  MIC of Meropenem with BLI: >64 µg/mL
E. coli ECO200; Escherichia coli, ECO200, read-out: MIC of LCB10-0200 with BLI
  MIC: > 64 µg/mL
E. coli TOPDXA048; BLI: 4 ug/mL
  MIC of Meropenem with BLI: 0.5 µg/mL
E. coli TOPDXA048; Escherichia coli, TOPDXA048, read-out: MIC of LCB10-0200 with BLI
  MIC: 0.25 µg/mL
E. coli K0519020
  MIC of Meropenem with BLI: 0.25 µg/mL
E. coli K0519020; Escherichia coli, K0519020, read-out: MIC of LCB10-0200 with BLI
  MIC: 0.25 µg/mL
[1]
  IC50: 13 nM

## NCC1CC([C@@H]2CC[C@@H]3CN2C(=O)N3OS(=O)(=O)O)=NO1 (stereo partly drawn) [Example 2, [(2S,5R)-2-[5-(aminomethyl)-4,5-dihydroisoxazol-3-yl]-7-oxo-1,6-diazabicyclo[3.2.1]octan-6-yl] hydrogen sulfate]
Mouse pharmacokinetics
  AUC(0-inf): 34500 ± 3610 ng·h/mL
  Cmax: 74.4 ± 3.44 µg/mL
  Tmax: 4.8 min
  clearance: 24.3 mL/min/kg
  half-life: 88.2 ± 9.6 min
  Vd: 1.57 ± 0.12 L/kg
  AUCnorm: 0.69 ± 0.07 kg·h/L
  Cmax, norm: 1.49 ± 0.07 kg/L

## NCC1(C(N)=O)CC([C@@H]2CC[C@@H]3CN2C(=O)N3OS(=O)(=O)O)=NO1 (stereo partly drawn) [Example 14, [(2S,5R)-2-[5-(aminomethyl)-5-carbamoyl-4H-isoxazol-3-yl]-7-oxo-1,6-diazabicyclo[3.2.1]octan-6-yl] hydrogen sulfate]
K. pneumoniae 4248
  MIC of Meropenem with BLI: 0.0625 µg/mL
P. aeruginosa ARC3506
  MIC of Meropenem with BLI: 64 µg/mL
P. aeruginosa ARC3514
  MIC of Meropenem with BLI: >64 µg/mL
K. pneumoniae 3784
  MIC of Meropenem with BLI: 0.25 µg/mL
K. pneumoniae NDM-506
  MIC of Meropenem with BLI: >64 µg/mL
P. aeruginosa ATCC27853
  MIC of Meropenem with BLI: 2 µg/mL

## CC(C)(O/N=C(\C(=O)N[C@@H]1C(=O)N2C(C(=O)[O-])=C(C[n+]3ccccc3)CS[C@H]12)c1csc(N)n1)C(=O)O [Ceftazidime]
K. pneumoniae 3784; Klebsiella pneumoniae, 3784, 19 h, read-out: MIC of Ceftazidime alone, no BLI
  MIC: > 64 µg/mL
K. pneumoniae 4006
  MIC: > 64 µg/mL
K. pneumoniae 5576
  MIC: > 64 µg/mL
P. aeruginosa ATCC27853; Pseudomonas aeruginosa, ATCC27853, 19 h, read-out: MIC of Ceftazidime alone, no BLI
  MIC: 2 µg/mL
K. pneumoniae ATCC700603
  MIC: 32 µg/mL

## NCC1(CO)CC([C@@H]2CC[C@@H]3CN2C(=O)N3OS(=O)(=O)O)=NO1 (stereo partly drawn) [Example 13, [(2S,5R)-2-[5-(aminomethyl)-5-(hydroxymethyl)-4H-isoxazol-3-yl]-7-oxo-1,6-diazabicyclo[3.2.1]octan-6-yl] hydrogen sulfate]
K. pneumoniae 4248
  MIC of Meropenem with BLI: 0.0625 µg/mL
P. aeruginosa ARC3506
  MIC of Meropenem with BLI: 32 µg/mL
P. aeruginosa ARC3514
  MIC of Meropenem with BLI: >64 µg/mL
K. pneumoniae 3784
  MIC of Meropenem with BLI: 0.25 µg/mL
K. pneumoniae NDM-506
  MIC of Meropenem with BLI: >64 µg/mL
P. aeruginosa ATCC27853
  MIC of Meropenem with BLI: 2 µg/mL

## NCC1(CN)CC([C@@H]2CC[C@@H]3CN2C(=O)N3OS(=O)(=O)O)=NO1 [Example 5, [(2S,5R)-2-[5,5-bis(aminomethyl)-4H-isoxazol-3-yl]-7-oxo-1,6-diazabicyclo[3.2.1]octan-6-yl] hydrogen sulfate]
Mouse pharmacokinetics
  AUC(0-inf): 55300 ± 4160 ng·h/mL
  Cmax: 103 ± 9.93 µg/mL
  Tmax: 4.8 min
  clearance: 15.2 mL/min/kg
  half-life: 191 ± 93.6 min
  Vd: 2.23 ± 0.61 L/kg
  AUCnorm: 1.11 ± 0.08 kg·h/L
  Cmax, norm: 2.06 ± 0.20 kg/L
